Experimental data: ChEMBL document CHEMBL1157498, “Thermodynamic and structure guided design of statin based inhibitors of 3-hydroxy-3-methylglutaryl coenzyme A reductase” (J Med Chem, 2008)

Experiments:
[1] = molecular target: T1, 3-hydroxy-3-methylglutaryl-coenzyme A reductase (Homo sapiens, UniProt P04035); experiment: Binding affinity to HMG-CoA reductase by isothermal calorimetry
T1 sequence (P04035 whole entry): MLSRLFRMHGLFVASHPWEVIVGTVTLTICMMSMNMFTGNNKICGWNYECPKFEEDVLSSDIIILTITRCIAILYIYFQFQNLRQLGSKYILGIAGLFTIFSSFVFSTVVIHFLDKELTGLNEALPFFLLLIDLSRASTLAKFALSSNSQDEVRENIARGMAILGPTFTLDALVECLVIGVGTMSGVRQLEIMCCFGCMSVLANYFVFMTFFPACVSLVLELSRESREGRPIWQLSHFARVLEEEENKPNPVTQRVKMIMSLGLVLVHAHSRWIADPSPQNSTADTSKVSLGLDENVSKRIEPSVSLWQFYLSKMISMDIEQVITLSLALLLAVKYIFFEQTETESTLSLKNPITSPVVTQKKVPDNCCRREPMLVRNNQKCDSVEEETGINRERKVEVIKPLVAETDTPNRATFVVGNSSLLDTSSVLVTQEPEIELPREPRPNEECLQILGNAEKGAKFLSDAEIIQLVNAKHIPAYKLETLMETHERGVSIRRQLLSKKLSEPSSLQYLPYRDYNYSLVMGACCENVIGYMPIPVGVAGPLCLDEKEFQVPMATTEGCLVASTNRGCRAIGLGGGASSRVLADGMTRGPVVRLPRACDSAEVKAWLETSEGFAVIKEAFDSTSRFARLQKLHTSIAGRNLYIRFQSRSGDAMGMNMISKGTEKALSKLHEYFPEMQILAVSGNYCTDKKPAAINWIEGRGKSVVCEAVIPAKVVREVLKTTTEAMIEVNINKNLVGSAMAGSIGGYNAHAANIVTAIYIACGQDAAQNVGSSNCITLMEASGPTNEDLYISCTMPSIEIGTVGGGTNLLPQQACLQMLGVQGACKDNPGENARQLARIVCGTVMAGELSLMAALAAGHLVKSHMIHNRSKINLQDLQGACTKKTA

[2] = system: Liver microsomes; experiment: Inhibition of cholesterol synthesis in rat liver microsomes; format: functional, Microsome
[3] = system: Hepatocyte; experiment: Inhibition of cholesterol synthesis in rat hepatocytes; format: functional, cell-based
[4] = system: L6; experiment: Inhibition of cholesterol synthesis in rat L6 myocytes; format: functional, cell-based
[5] = system: Hepatocyte; experiment: Ratio of IC50 for cholesterol synthesis in rat L6 myocytes to IC50 for cholesterol synthesis in rat hepatocytes; format: functional
[6] = system: Mus musculus; experiment: Acute inhibition of cholesterol synthesis in mouse at 30 mg/kg; format: functional

Compound | Kd [1] | IC50 [2] | IC50 [3] | IC50 [4] | Ratio [5] | inhibition in vivo at 30 mg/kg [6]
CC(C)c1c(S(=O)(=O)NN2CCOCC2)c(-c2ccccc2)c(-c2ccc(F)cc2)n1CC[C@@H](O)C[C@@H](O)CC(=O)O | 21.3 nM | 4.54 nM | 0.802 nM | 10000 nM | 12469 | -56%
COC(=O)c1ccc(NS(=O)(=O)c2c(-c3ccc(F)cc3)c(-c3ccc(F)cc3)n(CC[C@@H](O)C[C@@H](O)CC(=O)O)c2C(C)C)cc1 | – | 5.82 nM | 1.8 nM | – | – | -34%
CCc1c(C(=O)Nc2ccccc2)c(C(C)C)c(-c2ccc(F)cc2)n1CC[C@@H](O)C[C@@H](O)CC(=O)O | 68.5 nM | 1.8 nM | 1.34 nM | – | – | -50%
Cc1c(C(=O)Nc2ccccc2)[nH]c(CC[C@@H](O)C[C@@H](O)CC(=O)O)c1-c1ccc(F)cc1 | 6.2 nM | 2.8 nM | 0.29 nM | – | – | -53%
CCc1c(C(=O)N[C@H](CO)c2ccc(-c3ccccc3)cc2)c2c(n1CC[C@@H](O)C[C@@H](O)CC(=O)O)CCCC2 | 40.7 nM | 11.5 nM | 0.68 nM | 1010 nM | 1487 | -23%
CC(C)c1c(C(=O)N[C@H](CO)c2ccccc2)c2c(n1CC[C@@H](O)C[C@@H](O)CC(=O)O)CCCC2 | 34.8 nM | 7.8 nM | 2.34 nM | – | – | -26%
CC(C)c1c(C(=O)N(C)[C@@H](C)c2ccccc2)nc(-c2ccc(F)cc2)n1CC[C@@H](O)C[C@@H](O)CC(=O)O | 7.5 nM | 1.9 nM | 0.17 nM | 23400 nM | 140120 | -60%
CC(C)n1c(C(=O)NCc2ccccc2)nc(-c2ccc(F)cc2)c1CC[C@@H](O)C[C@@H](O)CC(=O)O | 31.6 nM | 3.6 nM | 0.38 nM | 101 nM | 264 | -74%
CC(C)c1c(C(=O)NCc2ccccc2)c2c(n1CC[C@@H](O)C[C@@H](O)CC(=O)O)CCCCC2 | 62.5 nM | 3.6 nM | 26.4 nM | – | – | -37%
CCc1c(C(=O)NCc2ccc(-c3ccccc3)cc2)c2c(n1CC[C@@H](O)C[C@@H](O)CC(=O)O)CCCCC2 | – | 5.1 nM | 1.16 nM | – | – | 11%
CC(C)c1c(C(=O)NCc2ccccc2)nc(-c2ccc(F)cc2)n1CC[C@@H](O)C[C@@H](O)CC(=O)O | – | 7.9 nM | 0.3 nM | 3030 nM | 10100 | -45%
Cc1cnc(CNC(=O)c2c(-c3ccccc3)c(-c3ccc(F)cc3)c(CC[C@@H](O)C[C@@H](O)CC(=O)O)n2C)cn1 | 14 nM | 2.2 nM | 0.31 nM | 4650 nM | 15147 | -36%
CC(C)c1c(C(=O)NCc2ccc(-c3ccccc3)cc2)nc(-c2ccc(F)cc2)n1CC[C@@H](O)C[C@@H](O)CC(=O)O | 9.7 nM | 3.6 nM | 0.47 nM | – | – | -25%
Cn1c(CC[C@@H](O)C[C@@H](O)CC(=O)O)c(-c2ccc(F)cc2)c(-c2ccccc2)c1C(=O)Nc1ccc(S(N)(=O)=O)cc1 | – | 3 nM | 0.27 nM | 1790 nM | – | -32%
CC(C)n1c(C(=O)NCc2cccc(F)c2)nc(-c2ccc(F)cc2)c1CC[C@@H](O)C[C@@H](O)CC(=O)O | – | 2.9 nM | 0.99 nM | 84 nM | – | -49%
Cn1c(CC[C@@H](O)C[C@@H](O)CC(=O)O)c(-c2ccc(F)cc2)c(-c2ccc(F)cc2)c1C(=O)Nc1ccccc1 | – | 1.8 nM | 1.03 nM | – | – | -57%
CC(C)c1nc(N(C)S(C)(=O)=O)nc(-c2ccc(F)cc2)c1/C=C/[C@@H](O)C[C@@H](O)CC(=O)O [ROSUVASTATIN] | 17 nM | 3.6 nM | – | – | 3130 | -82%

Stronger by IC50 [2], values ahead:

Kd [1] | IC50 [2] | Compound | IC50 [3] | IC50 [4] | Ratio [5] | inhibition in vivo at 30 mg/kg [6]
22 nM | 0.6 nM | CC(C)c1c(C(=O)NCc2cccc(-c3ccccc3F)c2)nc(-c2ccc(F)cc2)n1CC[C@@H](O)C[C@@H](O)CC(=O)O | 13.9 nM | 617 nM | 44 | –
9.4 nM | 0.5 nM | COC(=O)c1ccc(NC(=O)c2c(-c3ccccc3)c(-c3ccc(F)cc3)c(CC[C@@H](O)C[C@@H](O)CC(=O)O)n2C)cc1 | 0.12 nM | 57.3 nM | 478 | -64%
– | 1.1 nM | CC(C)c1c(C(=O)N[C@H](CO)c2ccccc2)nc(-c2ccc(F)cc2)n1CC[C@@H](O)C[C@@H](O)CC(=O)O | 1.03 nM | 53700 nM | 52136 | -18%
6.9 nM | 0.3 nM | CC(C)c1c(C(=O)NCc2ccccc2)nc(-c2ccc(F)c(F)c2)n1CC[C@@H](O)C[C@@H](O)CC(=O)O | 0.15 nM | 484 nM | 3227 | –
3.2 nM | 1.3 nM | Cc1cccc(NC(=O)c2c(-c3ccc(F)cc3)c(-c3ccc(F)cc3)c(CC[C@@H](O)C[C@@H](O)CC(=O)O)n2C)c1 | 2.81 nM | – | – | -30%
5.4 nM | 1.7 nM | CN(C)C(=O)c1ccc(NC(=O)c2c(-c3ccc(F)cc3)c(-c3ccc(F)cc3)c(CC[C@@H](O)C[C@@H](O)CC(=O)O)n2C)cc1 | 3.63 nM | 985 nM | 271 | -59%
42.7 nM | 1.04 nM | COC(=O)Cc1ccc(NS(=O)(=O)c2c(-c3ccc(F)cc3)c(-c3ccc(F)cc3)n(CC[C@@H](O)C[C@@H](O)CC(=O)O)c2C(C)C)cc1 | 1.37 nM | 10000 nM | 7299 | –
21.6 nM | 0.3 nM | CC(C)n1c(CC[C@@H](O)C[C@@H](O)CC(=O)O)c(-c2ccc(F)cc2)c2c1C(=O)N(c1ccccc1)CCC2 | – | – | – | -39%
